Measured values taken from the SangsterLogP compilation.

Assays:
[1] = method code SF-AS, from DOI: 10.1007/bf01964075; settings: pH 2.1
[2] = method code SF-AS, from DOI: 10.1016/s0045-6535(98)00368-3; settings: for logD: pH 2.0
[3] = method code SF, from DOI: 10.1248/yakushi1947.96.10_1169, PMID: 1033993; settings: pH 0.7
[4] = method code SF-AS, from DOI: 10.1002/em.2850200210, PMID: 1505530
[5] = not given; remark: listed apart in the source
[6] = not given; remark: listed apart in the source
[7] = method code SF-HPLC, from PMID: 1293941
[8] = method code SF-AS, from DOI: 10.1007/s001289900104, PMID: 8661852
[9] = method code SF-AS, from DOI: 10.1128/aac.27.1.84, PMID: 2580479
[10] = not given; remark: listed apart in the source
[11] = method code SF-AS, from DOI: 10.1016/j.bioorg.2006.09.003, PMID: 17078995; settings: pH 7.4
[12] = from Rich, R. (1990). Partition coefficients of quinones and their relation to biochemical reactivity. In Lenaz, G. (Ed.), Highlights in Ubiquinone Research: Proceedings of the International Symposium, …
[13] = method code SF-AS, from DOI: 10.1016/j.ejps.2010.09.003, PMID: 20854904
[14] = method code SF-AS, from DOI: 10.1007/bf01648987
[15] = method code SF-AS, from Jha, T.; Debnath, A.; Mazumdar, A.; Sengupta, C.; De, A. (1986). Hansch analysis of antineoplastic agents, 5-N-substituted-2-p-substituted benzenesulfonyl-L-glutamines. Ind. J. Chem., Sect. B, …
[16] = not given; remark: listed apart in the source
[17] = not given; remark: listed apart in the source
[18] = not given; remark: listed apart in the source
[19] = method code SF-AS, from DOI: 10.1002/jps.2600630206, PMID: 4204981
[20] = method code SF, from DOI: 10.1016/s0045-6535(97)00338-x

CNC(=O)C1CCCN1C(C)=O (configuration not stated)
logD [1]: -1.19

COc1cc(OC)nc(NC(=O)NS(=O)(=O)c2ccccc2Cl)n1
logD [2]: 1.95

CCCC(C)C1(CC)C(=O)NC(=O)N(C)C1=O (configuration not stated)
logD [3]: 2.45

O=C1c2cc([N+](=O)[O-])ccc2-c2ccc([N+](=O)[O-])cc21
logP [4]: 2.84

O=C(Oc1ccc2cc(Br)ccc2c1)C1OC(O)C(O)C(O)C1O (configuration not stated)
logP: 1.97

O=C(O)CCCCCOc1cccc2ccccc12
logP [5]: 4.5

COC(=O)CSc1ccc([N+](=O)[O-])cc1
logP [6]: 2.29

CCCCCOC(=O)c1ccc(N)cc1
logP [7]: 3.48

[N-]=[N+]=Nc1nc(N=[N+]=[N-])nc(Nc2ccccc2)n1
logP [8]: 3.88

CCC1(CC)C(=O)NC(=O)N(C)C1=O
logD [3]: 1.15

CCN1CCN(C(=O)N[C@@H](C(=O)N[C@@H]2C(=O)N3[C@@H]2SC(C)(C)[C@@H]3C(=O)O)c2ccccc2)C(=O)C1=O
logP [9]: 0.5

O=[N+]([O-])c1ccc2c(c1)Cc1cc([N+](=O)[O-])ccc1-2
logP [4]: 3.35

Cc1c(Cl)ccc(Cc2c(Cl)cccc2Cl)c1Cl
logP [10]: 6.58

Cn1nnnc1SCC1=C(C(=O)O)N2C(=O)[C@@H](NC(=O)CSCC#N)[C@H]2SC1
logD ([9]; pH 2.0): -0.62

CCCC(=O)OCCc1ccc(O)c(OC)c1
logD [11]: 2.54

COC(=O)c1ccccc1S(=O)(=O)NC(=O)Nc1nc(OC)cc(OC)n1
logD [2]: 1.78

CC1=CC(=O)C=C(C)C1=O
logP [12]: 0.95

CCCCCCCCOC(=O)c1ccc(N)cc1
logP [7]: 5.02

C=CCC1(CC=C)C(=O)NC(=O)N(C)C1=O
logD [3]: 1.55

O=C(CCNC1CCCCC1)c1ccccc1
logD ([13]; pH 11.0): 2.57

Cc1cc(CCO)ccc1O
logD [11]: 0.5

COC(=O)c1ccccc1CS(N)(=O)=O
logP [2]: 0.37

CCCCCCCOC(=O)c1ccc(N)cc1
logP [7]: 4.5

CCOC(=O)/C=C/c1ccccc1
logP [14]: 2.91

CCCCCNC(=O)CCC(NS(=O)(=O)c1ccccc1)C(=O)O (configuration not stated)
logP [15]: -0.16

CNC(=O)[C@H](Cc1ccc(O)cc1)NC(C)=O
logD [1]: -0.32

CC(=O)OCCc1ccc(O)c(O)c1
logD [11]: 0.95

CCC1(CCC(C)C)C(=O)NC(=O)N(C)C1=O (configuration not stated)
logD [3]: 2.45

CC(C)N1CCOC(c2ccccc2)C1 (configuration not stated)
logP [16]: 2.3

c1ccc2nn(C34CC5CC(CC(C5)C3)C4)nc2c1
logP [17]: 4.3

CCCCCCOC(=O)c1ccc(N)cc1
logP [7]: 3.95

O=C(CCN1CCCC1)c1ccccc1
logD ([13]; pH 10.0): 1.91

CO[C@@]1(NC(=O)Cc2cccs2)C(=O)N2C(C(=O)O)=C(COC(N)=O)CS[C@@H]21
logP [9]: -0.02

CC(=O)NC1CC1c1ccccc1 (configuration not stated)
logP [14]: 1.43

Cc1ccc(S(=O)(=O)NC(CCC(=O)NC2CCCCC2)C(=O)O)cc1 (configuration not stated)
logP [15]: 0.32

CCN(CC)CCC(=O)c1ccccc1
logD ([13]; pH 10.0): 1.59

c1ccc(C2CNCCO2)cc1 (configuration not stated)
logP [16]: 1.11

COC(=O)c1ccccc1S(=O)(=O)NC(=O)Nc1nc(C)cc(C)n1
logP [5]: 1.3

CCn1ccc(NS(=O)(=O)c2ccc(N)cc2)nc1=O
logP [18]: -0.2

Cc1cc(Cl)c(Cl)cc1Cc1c(Cl)cccc1Cl
logP [10]: 6.03

CC(Oc1ccc(Cl)cc1)C(=O)O (configuration not stated)
logP [19]: 2.31

CCCC1(CC)C(=O)NC(=O)N(C)C1=O (configuration not stated)
logD [3]: 1.65

CC[C@H](C)[C@H](NC(C)=O)C(=O)NC
logD [1]: 0.14

O=[N+]([O-])c1cccc2c([N+](=O)[O-])cccc12
logP [4]: 2.58

Nc1ccc(-c2ccc(N)cc2)cc1
logP [18]: 1.53

CC(=O)Nc1ccc(F)cc1F
logP [20]: 1.5

CN(C)Cc1ccccc1
logP [18]: 1.91

O=C1CC(C(=O)O)Oc2ccc(Cl)cc21 (configuration not stated)
logP [19]: 1.77

c1cn(C23CC4CC(CC(C4)C2)C3)cn1
logP [17]: 2.9

Cc1c(C)c(O)c(C)c(C)c1O
logP [12]: 1.8

COC(=O)CS(=O)c1ccc(Cl)cc1[N+](=O)[O-] (configuration not stated)
logP [6]: 1.69

O=C(CCN1CCCCC1)c1ccccc1
logD ([13]; pH 10.0): 2.4
